We go through 12 molecules from patent US20190270778A1, “Cyclic Peptides As C5a Receptor Antagonists” (priority 2016, published 2019).

For data set [1], the target named is T1, C5a receptor (Homo sapiens, UniProt P21730).
T1 construct: endogenous in cells; host or cells: leukocytes/granulocytes in freshly drawn whole blood of healthy volunteers
T1 sequence (P21730 1-350): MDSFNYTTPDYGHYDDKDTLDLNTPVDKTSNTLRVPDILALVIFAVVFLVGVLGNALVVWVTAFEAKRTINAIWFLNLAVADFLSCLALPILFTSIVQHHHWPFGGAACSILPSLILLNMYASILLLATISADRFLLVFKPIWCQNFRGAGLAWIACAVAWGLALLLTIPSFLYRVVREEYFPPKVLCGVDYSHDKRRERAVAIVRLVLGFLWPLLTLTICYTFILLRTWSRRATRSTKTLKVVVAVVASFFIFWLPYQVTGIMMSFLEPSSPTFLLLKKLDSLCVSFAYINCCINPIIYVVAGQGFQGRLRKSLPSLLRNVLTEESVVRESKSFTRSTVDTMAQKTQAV
Nature of the data set: HWB oxidative burst assay (C5a-induced, luminol chemiluminescence). The class given is cell-based. The procedure:
Inhibition of oxidative burst activity was determined in HWB primed with TNF-α and stimulated with C5a. C5a-induced oxidative burst response (generation of reactive oxygen species) was then detected in the presence of luminol as a chemiluminescent signal.
On the day of assay, HWB was collected from a healthy, non-medicated volunteer into tubes containing 3.8% sodium citrate (final sodium citrate concentration in HWB is 0.38%) and stored in a 37° C. water bath until use (no longer than 60 minutes).
To start the assay, TNF-α was added to HWB to a final concentration of 1.0 nM and 68 μL of this HWB/TNF-α mix was transferred to each well of a 384-well white Optiplate (assay plate). 4.0 μL of various concentrations of test agent were then added to the assay plate and mixed twice gently by aspirating up and down. The assay plate was then placed on a thermoshaker (JITTERBUG-4) and incubated at 37° C. (without shaking). After 60 minutes, C5a (Complement Technology) prepared in luminol (Sigma) was added to the assay plate and mixed twice gently by aspirating up and down. The plate was then placed in a ViewLux 1430 Microplate Imager (Perkin Elmer). After 5 minutes, oxidative burst activity was determined with the ViewLux by measuring luminol-enhanced whole blood chemiluminescence. Final assay conditions were 1.5 mM HEPES pH 7.5, 0.015% BSA, 15% HBSS, 0.85 ng/mL TNFα, 1.0 mM Luminol, C5a 20 nM, 76.5% HWB, 0.15% DMSO and various concentrations of test agent.
The percent (%) effect at each concentration of test agent was then calculated based on and relative to the amount of signal that was produced by positive (i.e. full inhibition of C5a induced oxidative burst) and negative (i.e. completely uninhibited C5a induced oxidative burst) control wells contained within each assay plate. The concentration and % effect values for test agents were plotted and the concentration of test agent required for 50% effect (IC50) was determined with a four-parameter logistic dose response equation (BioBook; IDBS). Kb (nM) was then calculated (BioBook; IDBS) using the equation described by Leff and Dougal (TIPS 1993 14:110-112).

Data set [2] concerns the target T1, C5a receptor. Kind of data set: HWB CD11b expression assay (C5a-challenged granulocytes, flow cytometry). The class given is cell-based. The protocol: HWB was collected from healthy, non-medicated volunteers into BD Vacutainer® blood collection tubes with K2EDTA as an anticoagulant. HWB was aliquoted (85 μL/well) in 96-well, deep-well, V-bottom plates and incubated at 37° C. for 30 minutes. Test compounds (5 μL/well) were added to HWB and incubated at 37° C. for 30 minutes. Anti-human CD11b antibody conjugated with APC (BD Biosciences) was added to HWB (5 μL/well) and incubated at 37° C. for additional 30 minutes. HWB was then challenged with human C5a (final 1 nM) for 30 minutes at 37° C. Samples were treated with warm 1× Lyse/Fix buffer (BD Biosciences) to terminate activation and further incubated at 37° C. for 20 minutes to lyse red blood cells. Assay plates were centrifuged at 300×g for 5 minutes, supernatant was aspirated, and cells were washed once with PBS containing 0.5% FBS. Washed cells were resuspended in PBS containing 0.5% FBS and subjected to flow cytometric analysis using an LSRFortessa equipped with a HTS plate loader (BD Biosciences). The granulocyte population was gated for analysis of MF of CD11b staining using FACSDiva version 6.2 (BD Biosciences). Data from 11 compound concentrations (singlicate at each concentration) was normalized as a percentage of control based on the formula:
% of Control=100×(A−B)/(C−B)
where A is MF from wells containing test compound and C5a, B is MF from wells without C5a (background MF from unstimulated samples) and C is MF from wells containing only C5a (maximum MF). Inhibition curves and IC50 values (test compound concentrations which produce 50% inhibition) were determined using the Prism version 5 software (GraphPad). HWB was also stimulated with 11 different concentrations of C5a to construct a responsive curve and to obtain EC50 value (the concentration of C5a that gives half-maximal response) and curve slope using the Prism version 5 software. Kb (nM) was then calculated using the equation described by Leff and Dougal (TIPS 1993 14:110-112).
For orientation: In flow cytometry, cells or beads pass a laser one at a time.

The conditions of data set [3]: the molecule shown is the open-chain precursor; amide bond; 18-membered ring.

As to `N=C(N)NCCC[C@@H]1NC(=O)[C@H](Cc2c[nH]c3ncccc23)NC(=O)[C@@H](C[C@H]2CC[C@@H](O)CC2)NC(=O)[C@@H]2C[C@@H](O)CN2C(=O)[C@@H](NC(=O)[C@H](Cc2ccccc2)NCC(=O)O)CCCNC1=O` [Example 6, ((S)-1-(((3R,6S,9S,15S,19R,20aS)-6-((1H-pyrrolo[2,3-b]pyridin-3-yl)methyl)-9-(3-guanidinopropyl)-19-hydroxy-3-(((1s,4S)-4-hydroxycyclohexyl)methyl)-1,4,7,10,16-pentaoxoicosahydropyrrolo[1,2-a][1,4,7,10,13]pentaazacyclooctadecin-15-yl)amino)-1-oxo-3-phenylpropan-2-yl)glycine], the Kb on C5a receptor [1] was 68.1 nM; at C5a receptor [2], 460 nM. For `N=C(N)NCCC[C@@H]1NC(=O)[C@H](Cc2c[nH]c3ccccc23)NC(=O)[C@@H](C[C@H]2CC[C@@H](O)CC2)NC(=O)[C@@H]2C[C@H](N)CN2C(=O)[C@@H](NC(=O)[C@H](Cc2ccccc2)NCC(=O)O)CCCNC1=O` [Example 7, ((S)-1-(((3R,6S,9S,15S,19S,20aS)-6-((1H-indol-3-yl)methyl)-19-amino-9-(3-guanidinopropyl)-3-(((1s,4S)-4-hydroxycyclohexyl)methyl)-1,4,7,10,16-pentaoxoicosahydropyrrolo[1,2-a][1,4,7,10,13]pentaazacyclooctadecin-15-yl)amino)-1-oxo-3-phenylpropan-2-yl)glycine] the same measures were 1.8 nM and 10.9 nM. On the same counts, the results for `N=C(N)NCCC[C@@H]1NC(=O)[C@H](Cc2c[nH]c3ccccc23)NC(=O)[C@@H](C[C@H]2CC[C@@H](O)CC2)NC(=O)[C@@H]2C[C@@H](N)CN2C(=O)[C@@H](NC(=O)[C@H](Cc2ccccc2)NCC(=O)O)CCCNC1=O` [Example 8, ((S)-1-(((3R,6S,9S,15S,19R,20aS)-6-((1H-indol-3-yl)methyl)-19-amino-9-(3-guanidinopropyl)-3-(((1s,4S)-4-hydroxycyclohexyl)methyl)-1,4,7,10,16-pentaoxoicosahydropyrrolo[1,2-a][1,4,7,10,13]pentaazacyclooctadecin-15-yl)amino)-1-oxo-3-phenylpropan-2-yl)glycine] are 4 nM and 19.8 nM.

`CC(=O)N[C@@H]1C[C@H]2C(=O)N[C@H](C[C@H]3CC[C@@H](O)CC3)C(=O)N[C@@H](Cc3c[nH]c4ccccc34)C(=O)N[C@@H](CCCNC(=N)N)C(=O)NCCC[C@H](NC(=O)[C@H](Cc3ccccc3)NCC(=O)O)C(=O)N2C1` [Example 9, ((S)-1-(((3R,6S,9S,15S,19R,20aS)-6-((1H-indol-3-yl)methyl)-19-acetamido-9-(3-guanidinopropyl)-3-(((1s,4S)-4-hydroxycyclohexyl)methyl)-1,4,7,10,16-pentaoxoicosahydropyrrolo[1,2-a][1,4,7,10,13]pentaazacyclooctadecin-15-yl)amino)-1-oxo-3-phenylpropan-2-yl)glycine]: the figures for the Kb at C5a receptor [1] and at C5a receptor [2] were 1 nM and 32.6 nM, respectively.

For `CC(=O)N[C@H]1C[C@H]2C(=O)N[C@H](C[C@H]3CC[C@@H](O)CC3)C(=O)N[C@@H](Cc3c[nH]c4ccccc34)C(=O)N[C@@H](CCCNC(=N)N)C(=O)NCCC[C@H](NC(=O)[C@H](Cc3ccccc3)NCC(=O)O)C(=O)N2C1` [Example 10, ((S)-1-(((3R,6S,9S,15S,19S,20aS)-6-((1H-indol-3-yl)methyl)-19-acetamido-9-(3-guanidinopropyl)-3-(((1s,4S)-4-hydroxycyclohexyl)methyl)-1,4,7,10,16-pentaoxoicosahydropyrrolo[1,2-a][1,4,7,10,13]pentaazacyclooctadecin-15-yl)amino)-1-oxo-3-phenylpropan-2-yl)glycine], the Kb stood at 2.1 nM at C5a receptor [1] and 11.7 nM at C5a receptor [2]. For `N=C(N)NCCC[C@@H]1NC(=O)[C@H](Cc2c[nH]c3ccccc23)NC(=O)[C@@H](C[C@H]2CC[C@@H](O)CC2)NC(=O)[C@@H]2C[C@H](NCC(=O)O)CN2C(=O)[C@@H](NC(=O)[C@H](Cc2ccccc2)NCC(=O)O)CCCNC1=O` [Example 12, ((31R,6S,9S,15S,19S,20aS)-6-((1H-indol-3-yl)methyl)-15-((S)-2-((carboxymethyl)amino)-3-phenylpropanamido)-9-(3-guanidinopropyl)-3-(((1s,4S)-4-hydroxycyclohexyl)methyl)-1,4,7,10,16-pentaoxoicosahydropyrrolo[1,2-a][1,4,7,10,13]pentaazacyclooctadecin-19-yl)glycine] the same measures were 1.3 nM and 32.6 nM. On the same counts, the results for `N=C(N)NCCC[C@@H]1NC(=O)[C@H](Cc2n[nH]c3ccccc23)NC(=O)[C@@H](C[C@H]2CC[C@@H](O)CC2)NC(=O)[C@@H]2C[C@@H](O)CN2C(=O)[C@@H](NC(=O)[C@H](Cc2ccccc2)NCC(=O)O)CCCNC1=O` [Example 16, ((S)-1-(((31R,6S,9S,15S,19R,20aS)-6-((1H-indazol-3-yl)methyl)-9-(3-guanidinopropyl)-19-hydroxy-3-(((1s,4S)-4-hydroxycyclohexyl)methyl)-1,4,7,10,16-pentaoxoicosahydropyrrolo[1,2-a][1,4,7,10,13]pentaazacyclooctadecin-15-yl)amino)-1-oxo-3-phenylpropan-2-yl)glycine] are 6.5 nM and 75.2 nM. For `CCc1ccc2c(C[C@@H]3NC(=O)[C@@H](C[C@H]4CC[C@@H](O)CC4)NC(=O)[C@@H]4C[C@@H](O)CN4C(=O)[C@@H](NC(=O)[C@H](Cc4ccccc4)NCC(=O)O)CCCNC(=O)[C@H](CCCNC(=N)N)NC3=O)c[nH]c2c1` [Example 17, ((S)-1-(((31R,6S,9S,15S,19R,20aS)-6-((6-ethyl-1H-indol-3-yl)methyl)-9-(3-guanidinopropyl)-19-hydroxy-3-(((1s,4S)-4-hydroxycyclohexyl)methyl)-1,4,7,10,16-pentaoxoicosahydropyrrolo[1,2-a][1,4,7,10,13]pentaazacyclooctadecin-15-yl)amino)-1-oxo-3-phenylpropan-2-yl)glycine] the same measures were 29.7 nM and 234 nM. In turn, “H-Hyp(CH2CO2tBu)-dAla(3-(cis-4-hydroxycyclohexyl))-Trp(Boc)-Arg(Pbf)-Orn(Nα-[Boc-N(CH2CO2tBu)-Phe]; chain through Nδ)-OH?” had a ring closure, crude yield in data set [3] of 83%.

For the molecule “H-Hyp(tBu)-dAla(3-(cis-4-hydroxycyclohexyl))-Ala(3-(1-Boc-1H-pyrrolo[2,3-b]pyridin-3-yl))-Arg(Pbf)-Orn(Nα-[Boc-N(CH2CO2tBu)-Phe]; chain through Nδ)-OH”, the ring closure, crude yield in data set [3] was 100%. Same read-out and setting: the same measure for “H-Hyp(tBu)-dAla(3-(cis-4-hydroxycyclohexyl))-Ala(3-(4-methyl-1H-pyrazol-1-yl))-Arg(Pbf)-Orn(Nα-[Boc-N(CH2CO2tBu)-Phe]; chain through Nδ)-OH”: 48%. On the same count and under the same terms, the figure for “H-Hyp(tBu)-dAla(3-(cis-4-hydroxycyclohexyl))-Trp(Boc)-Arg(Pbf)-Orn(Nα-[N-(CH2CO2tBu)-MePhe]; chain through Nδ)-OH” is 100%.
